Columns and labels:
[1] = tested on: Echinochloa crus-galli (ECHCG); experiment: Greenhouse post-emergence weed control, percent injury vs untreated control; format: in vivo; details: 504 h
Method: (§1) Glufosinate was used as a commercial SL formulation containing 280 g ai/l of glufosinate (Liberty 280 SL, BASF). While the PPO herbicide Cadet containing 109 g ai/l fluthiacet-methyl was used (Cadet, FMC) formulation. • The evaluation for plant injury or damage caused by the chemical compositions was carried out using a scale from 0-100% when compared with the untreated control plants. Here, 0 means no damage and 100 means complete destruction of the plants.
(§2) 22., E=X+Y−(X*Y/100), where • X=effect in percent using herbicide A at an application rate of a; • Y=effect in percent using herbicide B at an application rate of b; • E=expected effect (in %) of A+B at application rates a+b.
(§3) The value E corresponds to the effect (plant damage or injury) which is to be expected if the activity of the individual compounds is just additive. If the observed effect is higher than the value E calculated according to Colby, a synergistic effect is present.
(§4) Seedlings of marestail (Conyza canadiensis; ERICA) and barnyardgrass (Echinochloa crusgalli; ECHCG) were treated with postemergence applications of either glufosinate at 246 g ai/ha, fluthiacet-methyl at 0.72 g ai/ha, or the combination of glufosinate (246 g ai/ha) and fluthiacet-methyl (0.72 g ai/ha), respectively, when they were 5-10 cm in height. All glufosinate treatments contained 1% (w/v) ammonium sulfate and solo fluthiacet-methyl treatments contained 1% (w/v) ammonium sulfate plus 1% (v/v) MSO surfactant. Plants were placed in a completely randomized design with four replications per treatment. Percent injury data was collected 21 days after treatment (DAT).

[2] = tested on: Conyza canadiensis (ERICA); experiment: as above; format: in vivo; details: 504 h
Method: as §1, §2, §3, §4

[3] = read-out: % activity, Solo Glufosinate (246 g ai/ha)

| SMILES | inhibition at 0.72 g/ha ([1]; ECHCG seedlings 5-10 cm, postemergence, 0.72 g ai/ha, 21 DAT, 1% ammonium sulfate plus 1% MSO, scale 0-100%, read-out: % activity, Solo Fluthiacet-methyl (0.72 g ai/ha)) | inhibition at 0.72 g/ha ([2]; ERICA seedlings 5-10 cm, postemergence, 0.72 g ai/ha, 21 DAT, 1% ammonium sulfate plus 1% MSO, scale 0-100%, read-out: % activity, Solo Fluthiacet-methyl (0.72 g ai/ha)) | inhibition at 246 g/ha [1, 3] | inhibition at 246 g/ha [2, 3] |
| --- | --- | --- | --- | --- |
| COC(=O)CSc1cc(/N=c2\sc(=O)n3n2CCCC3)c(F)cc1Cl [Fluthiacet-methyl, fluthiacet-methyl] | 20% | 23% | – | – |
| CP(=O)(O)CCC(N)C(=O)O (racemic) [Glufosinate, (2RS)-2-amino-4-[hydroxy(methyl)phosphinoyl]butyric acid] | – | – | 53% | 58% |

Reference: patent US20230089506A1, “Herbicide Combinations Comprising Glufosinate and Fluthiacet-Methyl” (BASF SE, priority 2020, published 2023)
